Entries after “also recorded” stand apart in the source; their conditions may differ.
What was measured:
[1] = tested on: Six1/Eya2-mediated transcription; test: MEF3-promoter luciferase assay in MCF7 cells; assay type: cell-based; conditions: compound incubated 48 hours
Method: MCF7 cells were plated in 24-well plates at 25,000 cells/well. 24 hours later, cells were transfected with 300 ng/well pGL3-6xMEF3 (a promoter-luciferase construct in which the promoter contains 6 well characterized Six1 MEF3 binding sites (Spitz et al., 1998)), 70 ng/well renilla luciferase, 100 ng/well pcDNA3.1 Six1, and 200 ng/well of pcDNA3.1-FLAG-Eya2 using FuGENE 6 (Roche Applied Science) transfection reagent. The following day the media was changed and 24 hours later lysates were prepared and analyzed with the Dual Luciferase Kit (Promega) on a Modulus Microplate (Turner Biosystems). An Eya2 phosphatase-dead mutant (D274N) was also used in place of wild type Eya2 to evaluate the effect of Eya2's phosphatase activity on transcription. To assay the effect of Eya2 phosphatase inhibitors on transcriptional activity, compound was added 24 hours after transfection and incubated for 48 hours before lysates were prepared and analyzed for luciferase activity as described above. All results were normalized to renilla activity to account for transfection efficiency and transcriptional activity was normalized to Eya2 protein expression in the Eya2 D274N rescue experiment. The inhibitory effect of the compounds was normalized to vehicle-treated control and statistical significance was determined by performing a one-way ANOVA with Dunnett's post-test on the natural log transformed normalized transcriptional activity.

[2] = UV-Vis spectra with Mg2+ titration; assay type: physicochemical; conditions: acetonitrile; for λmax without Mg2+ / λmax with Mg2+: 25 μM compound; for λmax without Mg2+: 0 mM Mg2+
Method: Compounds were dissolved in acetonitrile at a final concentration of 25 μM with final Mg^2+ concentration at 0, 0.5, 1, 5, 10, 25, 50, 100 and 200 mM. UV-visible spectra were obtained using an Agilent 8453 UV-Visible Spectrophotometer (Agilent Technologies) in 0.1 cm quartz cuvette at room temperature.
In order to elicit any possible weak association to Mg^2+, the inventors moved on to the organic solvent acetonitrile (Hojo et al., 2002). […] The solutions were prepared such that the absorbance was within the 0-1 range.

[3] = UV-Vis spectra with Na+ titration; assay type: physicochemical; conditions: acetonitrile
Method: In order to elicit any possible weak association to Mg^2+, the inventors moved on to the organic solvent acetonitrile (Hojo et al., 2002). […] The solutions were prepared such that the absorbance was within the 0-1 range. They observed a dose-dependent shift in the maximum absorbance wavelength (λmax), from 322 nm (0 mM Mg^2+) to 334 nm (100 mM Mg^2+) (FIGS. 11B, 11C). The inventors conducted a similar study with Na where the compound concentration was kept at 12.5 μM and the sodium perchlorate concentration ranged from 0 to 25 mM.

[4] = biological target: T1, Eya2 ED (Homo sapiens, UniProt O00167); conditions: no extra Mg2+ added
T1 sequence (O00167 253-538): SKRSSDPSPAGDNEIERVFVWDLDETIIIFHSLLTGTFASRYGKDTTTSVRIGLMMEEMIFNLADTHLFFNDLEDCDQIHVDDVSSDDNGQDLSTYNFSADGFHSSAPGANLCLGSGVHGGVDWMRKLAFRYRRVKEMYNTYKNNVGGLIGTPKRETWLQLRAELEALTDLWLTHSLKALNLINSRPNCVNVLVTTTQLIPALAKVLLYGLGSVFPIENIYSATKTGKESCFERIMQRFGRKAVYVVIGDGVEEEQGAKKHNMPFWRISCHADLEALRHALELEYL
Method: In order to provide evidence for the binding between hydrazides with Eya2, thermal shift experiments were performed to evaluate if Eya2 melting temperature (Tm) could be positively shifted in the presence of different concentrations of hydrazides. Compounds were serially diluted in DMSO in 96-well polypropylene plates (Thermo Fisher Scientific). A mixture of 49 μl of Eya2 and SYPRO Orange (5000× stock solution, Invitrogen) were transferred to a 96-well skirted thin-wall PCR plate (Bio-Rad) with a final concentration of 1 μM and 5×, respectively. Compounds prepared in the aforementioned mother plate were subsequently added to the protein-dye mixture, with final concentrations ranging from 0.34 nM to 200 μM (final volume 50 μl). DMSO alone was also transferred within each compound dilution series as a control sample. DMSO concentration was consistent across each dilution series and was maintained at 2%. The plate was sealed with Optical-Quality Sealing Tape (Bio-Rad) and was centrifuged at 1000 rpm for 20 s before heating commenced. Plate heating was performed on an iQ5 real-time PCR detection system (Bio-Rad) from 20 to 95° C. with an increment of 1° C. and a ramping rate of 0.1° C./s. A CCD camera was used to measure SYPRO Orange fluorescence through a filter set corresponding to excitation and emission wavelengths of 490 and 575 nm, respectively. […]

SMILES: O=C(N/N=C/c1ccc(Sc2ccccn2)o1)c1ccncc1 [NCGC00241224]
- Effect on Six1/Eya2-mediated transcription from the MEF3-luciferase reporter [1]: does not significantly affect; also recorded: does not significantly inhibit

SMILES: Cc1ccccc1C(=O)N/N=C/c1ccc(Sc2ccccn2)o1 [MLS000585814]
- Effect on Six1/Eya2-mediated transcription from the MEF3-luciferase reporter [1]: diminish; also recorded: inhibit
- λmax without Mg2+ [2]: 316 nm
- λmax with Mg2+ ([2]; 50 mM Mg2+): 327 nm

SMILES: O=C(N/N=C/c1ccc(Sc2ccccn2)o1)c1cccc(F)c1 [MLS000544460]
- λmax when titrated with Na+ [3]: 323 nm
- Effect on Six1/Eya2-mediated transcription from the MEF3-luciferase reporter [1]: inhibit
- Effect on Six1/Eya2-mediated transcription from the MEF3-luciferase reporter ([1]; listed as MLS00044460): diminish
- Intrinsic affinity for Mg2+ [2]: very weak intrinsic affinity
- λmax without Mg2+ [2]: 322 nm
- λmax with Mg2+ ([2]; 100 mM Mg2+): 334 nm

SMILES: O=C(O)CN(CCN(CC(=O)O)CC(=O)O)CC(=O)O [EDTA]
- Effect on ED melting temperature (Tm) [4]: reduces Tm

— patent US20140155420A1, “INHIBITORS OF EYA2” (The Regents of the University of Colorado, a body corporate, priority 2011, published 2014)
